How the values were obtained:
γH2AX foci in A549 cells = assay: γH2AX foci, Cellomics ArrayScan high-content microscopy; type: cell-based, human; conditions: 50 μM, 24 h after exposure to IR
Text: We tested this prediction by monitoring RAD51 foci formation after the exposure of A549 non-small cell lung carcinoma (NSCLC) cells to ionizing radiation (IR), using a robust cell-based assay based on high-content microscopy with the Cellomics ArrayScan V^TI, to objectively enumerate RAD51 foci ([Jeyasekharan et al., 2013]). IR-induced DNA breakage was monitored in the same experiment by enumerating foci containing γH2AX, a phosphorylated form of histone H2AX that is formed at DNA breaks ([Rogakou et al., 1998]).
For detection of γH2AX foci in A549 cells, 10,000 cells/well (1x10^5 cells/ml) were seeded in 100 μl and left to grow overnight before treatment with compound. Cells were subsequently exposed to compounds and either 3 Gy ionising radiation or mock treated (left on the bench at room temperature). Staining protocol was identical as for RAD51 foci but anti-phospho γH2AX primary mouse monoclonal antibody was used (Millipore, cat#05-636) at 1:2000 dilution. Image analysis was done using Cellomics software.

HCT116 cells = assay: SRB growth inhibition assay; type: cell-based, human; conditions: for IC50 / GI50: Homo sapiens; for IC50: HCT-116, 96 h, Figure 6D (cell line not given); for GI50: HCT-116, geometrical mean, n = 18
Experimental: (§1) Adherent cell lines (HCT116 and A549 cells) were seeded into flat-bottomed tissue culture 96-well plates in a volume of 150 μL of growth medium. HCT116 cells were seeded at 750 cells per well and A549 cells were seeded at 1000 cells per well. After 24 hours, compounds dissolved in DMSO were diluted in growth medium and were added to cells such that the final DMSO concentration was 1% (v/v) and the final volume in the well was 200 μL. Cells were then incubated in the presence of compound for 96 hours before fixation.
(§2) Medium was removed from cells and 100 μL of cold 1% (v/v) trichloroacetic acid was added for 30 minutes at 4 degrees. The plates were washed three times in tap water and left to dry at room temperature. The fixed cells were stained in a 0.057% sulphorodamine B/1% acetic acid solution (w/v) and incubated at room temperature with agitation for 30 minutes after which the dye was removed and the plates washed in 1% (v/v) acetic acid and left to dry. The dye was then solubilised in 10 mM Tris solution (pH8) and incubated for 30 minutes under agitation. The plates were then read on a PHERAstar plus plate reader (BMG Labtech) using the fluorescence intensity module (540-590 nm). Growth inhibition was calculated relative to DMSO controls and GI50 values were calculated using Graphpad Prism.

[1] = tested on: HCT116 cells (BRCA2 wild-type); assay: SRB growth inhibition assay, combination of CAM833 and PARP1 inhibitor AZD2461; type: cell-based, human; conditions: 96 h
Experimental: as §1, §2
For the PARP inhibitor experiments, the SRB method was used as described above to measure growth inhibition with the exception that cells were seeded into 150 μl medium and then a combination of either 25 μl of CAM833, AZD2461 (SelleckChem; #S7029) or DMSO was added to give a total volume of 200 ul in the well.

CYP450 2C9 = target: T1, CYP450 2C9 (Homo sapiens, UniProt P11712); assay: CYP450 inhibition; type: in vitro ADME
T1 construct: Cyprotex (contract data)

CYP450 2C19 = target: T2, CYP450 2C19 (Homo sapiens, UniProt P33261); assay: CYP450 inhibition; type: in vitro ADME
T2 construct: Cyprotex (contract data)

PC3 = assay: cells; conditions: Homo sapiens, PC-3, read-out: Absolute EC50, growth inhibition
SK-MEL-24 = assay: cells; conditions: Homo sapiens, SK-MEL-24, read-out: Absolute EC50, growth inhibition
BT549 = assay: cells; conditions: Homo sapiens, BT-549, read-out: Absolute EC50, growth inhibition
HCT116 = assay: cells; conditions: Homo sapiens, HCT-116, read-out: Absolute EC50, growth inhibition
A375 = assay: cells; conditions: Homo sapiens, A-375, read-out: Absolute EC50, growth inhibition
HT1367 = assay: cells; conditions: Homo sapiens, read-out: Absolute EC50, growth inhibition
MDA-MB-453 = assay: cells; conditions: Homo sapiens, MDA-MB-453, read-out: Absolute EC50, growth inhibition
T.Tn = assay: cells; conditions: Homo sapiens, read-out: Absolute EC50, growth inhibition
U118MG = assay: cells; conditions: Homo sapiens, U-118-MG, read-out: Absolute EC50, growth inhibition
HepG2 = assay: cells; conditions: Homo sapiens, HepG2, read-out: Absolute EC50, growth inhibition
K562 = assay: cells; conditions: Homo sapiens, K562, read-out: Absolute EC50, growth inhibition
RKO = assay: cells; conditions: Homo sapiens, read-out: Absolute EC50, growth inhibition
A2780 = assay: cells; conditions: Homo sapiens, A2780, read-out: Absolute EC50, growth inhibition
Caki1 = assay: cells; conditions: Homo sapiens, CAKI-1, read-out: Absolute EC50, growth inhibition
Mouse oral screen = conditions: male, CD-1, mouse, in vivo, 50 mg/kg
[2] = Mouse iv pharmacokinetics; conditions: male, CD-1, mouse, in vivo, 1 mg/kg
[3] = Microsomal intrinsic clearance; conditions: rat, rat microsomes

T1 sequence (P11712 whole entry): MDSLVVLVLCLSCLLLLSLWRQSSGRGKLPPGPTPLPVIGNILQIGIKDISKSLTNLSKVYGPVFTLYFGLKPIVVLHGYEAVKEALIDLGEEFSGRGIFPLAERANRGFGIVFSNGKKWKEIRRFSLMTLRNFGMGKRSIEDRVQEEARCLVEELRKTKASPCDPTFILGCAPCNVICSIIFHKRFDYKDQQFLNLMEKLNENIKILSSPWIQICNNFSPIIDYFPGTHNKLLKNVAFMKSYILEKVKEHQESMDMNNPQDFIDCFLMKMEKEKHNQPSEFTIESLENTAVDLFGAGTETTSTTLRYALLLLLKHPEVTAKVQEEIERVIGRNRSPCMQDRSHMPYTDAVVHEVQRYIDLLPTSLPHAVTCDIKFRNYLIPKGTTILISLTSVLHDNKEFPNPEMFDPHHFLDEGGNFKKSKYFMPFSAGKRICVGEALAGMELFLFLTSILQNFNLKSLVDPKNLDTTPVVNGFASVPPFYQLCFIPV
T2 sequence (P33261 whole entry): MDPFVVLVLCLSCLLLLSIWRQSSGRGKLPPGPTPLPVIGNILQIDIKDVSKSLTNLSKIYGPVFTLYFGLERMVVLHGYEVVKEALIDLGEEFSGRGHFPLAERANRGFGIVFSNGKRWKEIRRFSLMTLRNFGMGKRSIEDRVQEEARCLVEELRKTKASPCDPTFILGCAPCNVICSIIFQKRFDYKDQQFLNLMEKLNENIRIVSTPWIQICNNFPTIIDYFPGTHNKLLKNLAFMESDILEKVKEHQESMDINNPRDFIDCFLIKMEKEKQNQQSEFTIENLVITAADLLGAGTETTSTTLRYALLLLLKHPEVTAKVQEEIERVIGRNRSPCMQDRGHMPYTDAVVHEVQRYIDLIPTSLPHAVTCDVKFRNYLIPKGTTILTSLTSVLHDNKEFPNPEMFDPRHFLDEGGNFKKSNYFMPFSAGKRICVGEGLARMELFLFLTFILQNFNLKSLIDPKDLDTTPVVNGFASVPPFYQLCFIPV

COc1ccc([C@H](C)NC(=O)[C@@H]2C[C@@H](O)CN2C(=O)CNC(=O)c2ccc3cc(F)ccc3n2)c(Cl)c1 [CAM833, N-(2-((2S,4R)-2-(((S)-1-(2-chloro-4-methoxyphenyl)ethyl)carbamoyl)-4-hydroxypyrrolidin-1-yl)-2-oxoethyl)-6-fluoroquinoline-2-carboxamide]
increase of γH2AX foci formation compared with control-treated cells (γH2AX foci in A549 cells): approximately 4 fold
GI50 with 3 Gy IR lower than GI50 for compound alone (HCT116 cells; HCT116): more than 2 fold
IC50 (HCT116 cells; 0 Gy IR, SRB 96 h): 63.5 µM
IC50 (HCT116 cells; 1 Gy IR, SRB 96 h): 30.4 µM
IC50 (HCT116 cells; 2 Gy IR, SRB 96 h): 13 µM
IC50 (HCT116 cells; 3 Gy IR, SRB 96 h): 11.8 µM
GI50 (HCT116 cells; HCT116, CAM833 alone, 96 h exposure): 38 µM
GI50 (HCT116 cells; HCT116, combined with 3 Gy IR): 14 µM
effect of combination with increasing doses of IR on growth suppression (in words) (HCT116 cells; fixed 10 μM dose, 0 to 3 Gy IR, SRB 96 h): potentiates
growth inhibition by combination with AZD2461 (in words) ([1]; HCT116, BRCA2 wild-type): potentiated the growth-suppressive effects of PARP1 inhibition
growth inhibition by CAM833 alone (in words) ([1]; HCT116, fixed dose 10 μM or 20 μM): little effect
IC50 (CYP450 2C9): > 25 µM
IC50 (CYP450 2C19): > 25 µM
EC50 (PC3): 91.2 µM
EC50 (SK-MEL-24): 144 µM
EC50 (BT549): 73.8 µM
EC50 (HCT116): 63.5 µM
EC50 (A375): 72 µM
EC50 (HT1367): 104 µM
EC50 (MDA-MB-453): 48 µM
EC50 (T.Tn): 55.8 µM
EC50 (U118MG): 90.3 µM
EC50 (HepG2): 68.1 µM
EC50 (K562): 137 µM
EC50 (RKO): 63.5 µM
EC50 (A2780): 46.5 µM
EC50 (Caki1): 73 µM
Cmax (Mouse oral screen): 8320 ng/mL
bioavailability (Mouse oral screen): 44%
Vd [2]: 2.51 L/kg
clearance [2]: 44.6 mL/min/kg
half-life [2]: 1.44 h
half-life [3]: 0.798 h
microsomal CLint [3]: 28.9 ± 4.16 µL/min/mg

Reference: publication PMC8219027, “A small-molecule inhibitor of the BRCA2-RAD51 interaction modulates RAD51 assembly and potentiates DNA damage-induced cell death” (Cell Chemical Biology, 2021)
